Results as given in US20240158446A1, “CYCLIC COMPOUND HAVING SELECTIVE INHIBITORY ACTION ON KRAS OVER HRAS AND NRAS” (CHUGAI SEIYAKU KABUSHIKI KAISHA, priority 2021, published 2024).
pKd: −log10 of the molar value. Like-named read-outs stand apart in the source and are kept apart here. Where a SMILES comes first, the peptide text is derived from it. Bridges are numbered along the chain shown (N, C = ends). [ ]: non-standard residue; d: D form. The star is where a group is joined. hPhe(3,5-F2-4-CF3) = N[C@@H](CCc1cc(F)c(C(F)(F)F)c(F)c1)C(=O)O; hPhe(3-Cl-4-CF3) = N[C@@H](CCc1ccc(C(F)(F)F)c(Cl)c1)C(=O)O; NPrPhe(4-CF3) = CCCN[C@@H](Cc1ccc(C(F)(F)F)cc1)C(=O)O; Pro(4-spirocPr) = O=C(O)[C@@H]1CC2(CC2)CN1; NMeGly(cPent) = CN[C@H](C(=O)O)C1CCCC1; Nva(3-Et) = CCC(CC)[C@H](N)C(=O)O; NMeD = CN[C@@H](CC(=O)O)C(=O)O; NMeL = CN[C@@H](CC(C)C)C(=O)O; Morpholide = C1CN(*)CCO1; NMeA = CN[C@@H](C)C(=O)O; dNMeA = CN[C@H](C)C(=O)O; Ac5c = NC1(C(=O)O)CCCC1; Aze = O=C(O)[C@@H]1CCN1; Sar = CNCC(=O)O

Experiments:
[1] = target: GDP-bound KRAS wild-type protein (Homo sapiens, UniProt P01116); assay: Binding to KRAS by surface plasmon resonance (SPR), Single Cycle Kinetics; details: GDP-bound KRAS wild-type protein, read-out: KRAS KD
[2] = target: GDP-bound NRAS wild-type protein (Homo sapiens, UniProt P01111); assay: Binding to NRAS by surface plasmon resonance (SPR), Single Cycle Kinetics; details: for NRAS/KRAS (ratio of KD value with respect to NRAS to KD value with respect to KRAS) / NRAS/KRAS (ratio of KD value for NRAS to KD value for KRAS): GDP-bound NRAS wild-type protein vs GDP-bound KRAS wild-type protein
[3] = target: GDP-bound HRAS wild-type protein (Homo sapiens, UniProt P01112); assay: Binding to HRAS by surface plasmon resonance (SPR), Single Cycle Kinetics; details: for HRAS/KRAS (ratio of KD value with respect to HRAS to KD value with respect to KRAS) / HRAS/KRAS (ratio of KD value for HRAS to KD value for KRAS): GDP-bound HRAS wild-type protein vs GDP-bound KRAS wild-type protein
[4] = SPR Single Cycle Kinetics, 1:1 binding model

GDP-bound HRAS wild-type protein, sequence (P01112 whole entry): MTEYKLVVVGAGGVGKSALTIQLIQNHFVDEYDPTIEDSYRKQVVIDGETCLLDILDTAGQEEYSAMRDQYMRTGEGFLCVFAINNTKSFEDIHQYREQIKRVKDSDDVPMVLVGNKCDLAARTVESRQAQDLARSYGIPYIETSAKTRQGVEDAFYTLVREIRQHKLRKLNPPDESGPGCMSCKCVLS
GDP-bound KRAS wild-type protein, sequence (P01116 whole entry): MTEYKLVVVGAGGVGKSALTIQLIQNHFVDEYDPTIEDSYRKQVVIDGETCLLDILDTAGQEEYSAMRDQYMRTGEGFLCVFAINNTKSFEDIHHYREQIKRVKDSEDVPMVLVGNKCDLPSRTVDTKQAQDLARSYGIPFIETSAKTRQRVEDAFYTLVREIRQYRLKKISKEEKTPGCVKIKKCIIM
GDP-bound NRAS wild-type protein, sequence (P01111 whole entry): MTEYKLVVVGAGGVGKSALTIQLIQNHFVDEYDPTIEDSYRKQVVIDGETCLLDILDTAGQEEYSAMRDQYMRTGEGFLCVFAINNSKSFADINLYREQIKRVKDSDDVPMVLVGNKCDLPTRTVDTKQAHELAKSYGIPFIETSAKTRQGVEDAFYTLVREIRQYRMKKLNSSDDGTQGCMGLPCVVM

CCO[C@@H]1C[C@H]2C(=O)NC3(CC(C)(C)C3)C(=O)N(C)[C@@H](C3CCCC3)C(=O)N(C)[C@H](C(=O)N(C)C)CC(=O)N(C)[C@@H](CC(C)C)C(=O)N[C@@H]([C@@H](C)CC)C(=O)N(C)CC(=O)N(C)[C@H]3C/C=C\CCN(C3=O)[C@@H](Cc3ccc(C(F)(F)F)cc3)C(=O)N(C)CC(=O)N[C@@H](CCc3cc(F)c(C(F)(F)F)c(F)c3)C(=O)N2C1 [PP1650, (2S,8S,12R,14S,20S,23S,27S,30S,36S,38Z)-20-cyclopentyl-8-[2-[3,5-difluoro-4-(trifluoromethyl)phenyl]ethyl]-12-ethoxy-27-isobutyl-N,N,3′,3′,4,19,22,26,32,35-decamethyl-30-[(1S)-1-methylpropyl]-3,6,9,15,18,21,25,28,31,34,42-undecaoxo-2-[[4-(trifluoromethyl)phenyl]methyl]spiro[1,4,7,10,16,19,22,26,29,32,35-undecazatricyclo[34.5.1.0^10,14]dotetracont-38-ene-17,1′-cyclobutane]-23-carboxamide]
pKd ([1]; SPR, Single Cycle Kinetics): 10.24
NRAS/KRAS (KD ratio) ([2]; ratio of KD for GDP-bound NRAS wild-type protein to KD for KRAS, SPR): A (a compound having 10 or more and less than 20 is denoted as A)
HRAS/KRAS (KD ratio) ([3]; ratio of KD for GDP-bound HRAS wild-type protein to KD for KRAS, SPR): A (a compound having 10 or more and less than 20 is denoted as A)

CCO[C@@H]1C[C@H]2C(=O)NC3(CCC3)C(=O)N(C)[C@@H](C3CCCC3)C(=O)N(C)[C@H](C(=O)N(C)C)CC(=O)N(C)[C@@H](COC)C(=O)N[C@@H]([C@@H](C)CC)C(=O)N(C)CC(=O)N(C)[C@H]3CCCCCN(C3=O)[C@@H](Cc3ccc(C(F)(F)F)cc3)C(=O)N(C)CC(=O)N[C@@H](CCc3cc(F)c(C(F)(F)F)c(F)c3)C(=O)N2C1 [PP0674]
pKd [1, 4]: 9.80
NRAS/KRAS (ratio of KD value with respect to NRAS to KD value with respect to KRAS) ([2]; SPR): B (a compound having 3 or more and less than 10 is denoted as B)
HRAS/KRAS (ratio of KD value with respect to HRAS to KD value with respect to KRAS) ([3]; SPR): B (a compound having 3 or more and less than 10 is denoted as B)

CC[C@H](C)[C@@H]1NC(=O)[C@H](CC(C)C)N(C)C(=O)C[C@@H](C(=O)N2CCOCC2)N(C)C(=O)[C@H](C2CCCC2)N(C)C(=O)C2(CCCC2)NC(=O)[C@@H]2CCCN2C(=O)[C@H](CCc2cc(F)c(C(F)(F)F)c(F)c2)NC(=O)CN(C)C(=O)[C@H](Cc2ccc(C(F)(F)F)cc2)N2CCCC[C@@H](C2=O)N(C)C(=O)CN(C)C1=O [PP0552]
pKd [1, 4]: 10.28
NRAS/KRAS (ratio of KD value with respect to NRAS to KD value with respect to KRAS) ([2]; SPR): B (a compound having 3 or more and less than 10 is denoted as B)
HRAS/KRAS (ratio of KD value with respect to HRAS to KD value with respect to KRAS) ([3]; SPR): B (a compound having 3 or more and less than 10 is denoted as B)

CCCN1C(=O)[C@@H]2CCN2C(=O)[C@H](C)N(C)C(=O)[C@H]([C@@H](C)CC)NC(=O)[C@H](CC(C)C)N(C)C(=O)C[C@@H](C(=O)N2CCOCC2)N(C)C(=O)[C@H](C2CCCC2)N(C)C(=O)C2(CCCC2)NC(=O)[C@@H]2CC3(CC3)CN2C(=O)[C@H](CCc2ccc(C(F)(F)F)c(Cl)c2)NC(=O)CN(C)C(=O)[C@@H]1Cc1ccc(C(F)(F)F)cc1 [PP0282] ([NMeL]I[NMeA][Aze][NPrPhe(4-CF3)][Sar][hPhe(3-Cl-4-CF3)][Pro(4-spirocPr)][Ac5c][NMeGly(cPent)][NMeD]-Morpholide; lactam N-11)
pKd [1, 4]: 9.96
NRAS/KRAS (ratio of KD value for NRAS to KD value for KRAS) ([2]; SPR): C (A compound having a KD ratio of 0.1 or more and less than 3 is denoted as C)
HRAS/KRAS (ratio of KD value for HRAS to KD value for KRAS) ([3]; SPR): C (A compound having a KD ratio of 0.1 or more and less than 3 is denoted as C)

C#CC[C@H]1C(=O)N[C@@H]([C@@H](C)CC)C(=O)N(C)CC(=O)N(C)[C@H]2C/C=C\CCN(C2=O)[C@@H](Cc2ccc(C(F)(F)F)cc2)C(=O)N(C)CC(=O)N[C@@H](CCc2cc(F)c(C(F)(F)F)c(F)c2)C(=O)N2C[C@@H](C)C[C@H]2C(=O)NC2(CC(C)(C)C2)C(=O)N(C)[C@@H](C2CCCC2)C(=O)N(C)[C@H](C(=O)N(C)CC)CC(=O)N1C [PP2075]
pKd ([1]; SPR, Single Cycle Kinetics): 9.66
NRAS/KRAS (ratio of KD value for NRAS to KD value for KRAS) ([2]; SPR): A (a compound having 10 or more and less than 20 is denoted as A)
HRAS/KRAS (ratio of KD value for HRAS to KD value for KRAS) ([3]; SPR): A (a compound having 10 or more and less than 20 is denoted as A)

CCC[C@H]1C(=O)N[C@@H](C2CCCC2)C(=O)N(C)CC(=O)N(C)[C@H]2C/C=C\CCN(C2=O)[C@@H](Cc2ccc(C)cc2)C(=O)N(C)CC(=O)N[C@@H](CCc2ccc(C(F)(F)F)c(Cl)c2)C(=O)N2C[C@H](OCC)C[C@H]2C(=O)NC2(CC(C)(C)C2)C(=O)N(C)[C@@H](C2CCCC2)C(=O)N(C)[C@H](C(=O)N(C)C)CC(=O)N1C [PP2198]
pKd ([1]; SPR, Single Cycle Kinetics): 9.68
NRAS/KRAS (ratio of KD value for NRAS to KD value for KRAS) ([2]; SPR): A (a compound having 10 or more and less than 20 is denoted as A)
HRAS/KRAS (ratio of KD value for HRAS to KD value for KRAS) ([3]; SPR): A (a compound having 10 or more and less than 20 is denoted as A)

CC[C@H](C)[C@@H]1NC(=O)[C@H](CC)N(C)C(=O)C[C@@H](C(=O)N(C)C)N(CC)C(=O)[C@H](C2CCCC2)N(C)C(=O)C2(CCC2)NC(=O)[C@@H]2CCN2C(=O)[C@H](CCc2cc(F)c(C(F)(F)F)c(F)c2)NC(=O)CN(C)C(=O)[C@H](Cc2ccc(C(F)(F)F)cc2)N2CCCC[C@@H](C2=O)N(C)C(=O)CN(C)C1=O [PP0660]
pKd [1, 4]: 9.54
NRAS/KRAS (ratio of KD value with respect to NRAS to KD value with respect to KRAS) ([2]; SPR): B (a compound having 3 or more and less than 10 is denoted as B)
HRAS/KRAS (ratio of KD value with respect to HRAS to KD value with respect to KRAS) ([3]; SPR): B (a compound having 3 or more and less than 10 is denoted as B)

CCO[C@@H]1C[C@H]2C(=O)NC3(CCC3)C(=O)N(C)[C@@H](C3CCCC3)C(=O)N(C)[C@H](C(=O)N(C)CCOC)CC(=O)N(C)[C@@H](CC(F)F)C(=O)N[C@@H]([C@@H](C)CC)C(=O)N(C)CC(=O)N(C)[C@H]3C/C=C\CCN(C3=O)[C@@H](Cc3ccc(C(F)(F)F)cc3)C(=O)N(C)CC(=O)N[C@@H](CCc3cc(F)c(C(F)(F)F)c(F)c3)C(=O)N2C1 [PP1320]
pKd ([1]; SPR, Single Cycle Kinetics, 1:1 binding model): 10.24
NRAS/KRAS (ratio of KD value for NRAS to KD value for KRAS) ([2]; SPR, KD ratio class): A (a compound having 10 or more and less than 20 is denoted as A)
HRAS/KRAS (ratio of KD value for HRAS to KD value for KRAS) ([3]; SPR, KD ratio class): A (a compound having 10 or more and less than 20 is denoted as A)

CCCN1C(=O)CN(C)C(=O)CN(C)C(=O)[C@H]([C@@H](C)CC)NC(=O)[C@H](CC(C)C)N(C)C(=O)C[C@@H](C(=O)N2CCOCC2)N(C)C(=O)[C@H](C2CCCC2)N(C)C(=O)C2(CCCC2)NC(=O)[C@@H]2CCCN2C(=O)[C@H](CCc2ccc(C(F)(F)F)c(Cl)c2)NC(=O)[C@@H](C)N(C)C(=O)[C@@H]1Cc1ccc(C(F)(F)F)cc1 [PP0148] ([NMeL]I[Sar][Sar][NPrPhe(4-CF3)][dNMeA][hPhe(3-Cl-4-CF3)]P[Ac5c][NMeGly(cPent)][NMeD]-Morpholide; lactam N-11)
pKd [1, 4]: 8.47
NRAS/KRAS (ratio of KD value for NRAS to KD value for KRAS) ([2]; SPR): B (a compound having 3 or more and less than 10 is denoted as B)
HRAS/KRAS (ratio of KD value for HRAS to KD value for KRAS) ([3]; SPR): B (a compound having 3 or more and less than 10 is denoted as B)

CCO[C@@H]1C[C@H]2C(=O)NC3(CCC3)C(=O)N(C)[C@@H](C3CCCC3)C(=O)N(CCc3ccccc3)[C@H](C(=O)N(C)C)CC(=O)N(C)[C@@H](CC)C(=O)N[C@@H]([C@@H](C)CC)C(=O)N(C)CC(=O)N(C)[C@H]3CCCCN(C3=O)[C@@H](Cc3ccc(C(F)(F)F)cc3)C(=O)N(C)CC(=O)N[C@@H](CCc3cc(F)c(C(F)(F)F)c(F)c3)C(=O)N2C1 [PP0647]
pKd [1, 4]: 9.17
NRAS/KRAS (ratio of KD value with respect to NRAS to KD value with respect to KRAS) ([2]; SPR): C (A compound having a KD ratio of 0.1 or more and less than 3 is denoted as C)
HRAS/KRAS (ratio of KD value with respect to HRAS to KD value with respect to KRAS) ([3]; SPR): B (a compound having 3 or more and less than 10 is denoted as B)

CCCN1C(=O)[C@@H]2CCN2C(=O)CN(C)C(=O)[C@H](C(CC)CC)NC(=O)[C@H](CC(C)C)N(C)C(=O)C[C@@H](C(=O)N2CCOCC2)N(C)C(=O)[C@H](C2CCCC2)N(C)C(=O)C2(CCCC2)NC(=O)[C@@H]2CCCN2C(=O)[C@H](CCc2cc(F)c(C(F)(F)F)c(F)c2)NC(=O)CN(C)C(=O)[C@@H]1Cc1ccc(C(F)(F)F)cc1 [PP0804] ([NMeL][Nva(3-Et)][Sar][Aze][NPrPhe(4-CF3)][Sar][hPhe(3,5-F2-4-CF3)]P[Ac5c][NMeGly(cPent)][NMeD]-Morpholide; lactam N-11)
pKd [1, 4]: 8.85
NRAS/KRAS (ratio of KD value with respect to NRAS to KD value with respect to KRAS) ([2]; SPR): C (A compound having a KD ratio of 0.1 or more and less than 3 is denoted as C)
HRAS/KRAS (ratio of KD value with respect to HRAS to KD value with respect to KRAS) ([3]; SPR): B (a compound having 3 or more and less than 10 is denoted as B)

CCC(CC)[C@H]1C(=O)N(C)[C@H](C(=O)N(C)C)CC(=O)N(C)[C@@H](COC)C(=O)N[C@@H]([C@@H](C)CC)C(=O)N(C)CC(=O)N(C)[C@H]2C/C=C\CCN(C2=O)[C@@H](Cc2ccc(C(F)(F)F)cc2)C(=O)N(C)CC(=O)N[C@@H](CCc2cc(F)c(C(F)(F)F)c(F)c2)C(=O)N2CC[C@H]2C(=O)NC2(CC(C)(C)C2)C(=O)N1C [PP2918]
pKd [1, 4]: 8.74
NRAS/KRAS (ratio of KD value with respect to GDP-bound NRAS wild-type protein to KD value with respect to KRAS) ([2]; SPR KD ratio NRAS/KRAS, class symbols): AA (a compound having 20 or more is denoted as AA)
HRAS/KRAS (ratio of KD value with respect to GDP-bound HRAS wild-type protein to KD value with respect to KRAS) ([3]; SPR KD ratio HRAS/KRAS, class symbols): A (a compound having 10 or more and less than 20 is denoted as A)
